How the values were obtained:
[1] = molecular target: T1, rat EP2 prostaglandin E2 receptor (Rattus norvegicus, UniProt Q62928); test: Rat EP2 receptor binding assay (displacement of 3H-prostaglandin E2); details: 293S cell membranes expressing rat EP2, 3 nM 3H-prostaglandin E2, 1 hour at 25° C.
T1 construct: This full length receptor is used to prepare 293S cells expressing the EP2 receptor; expressed in transfected cells; membranes used in the assay
From the text: Rat EP2 Recptor Binding Assay
Assay for Binding to Prostaglandin E2 Receptors
The full length EP2 receptor is made as disclosed in Nemoto et al., Prostaglandins and other Lipid Mediators, 1997, 54, 713-725. This full length receptor is used to prepare 293S cells expressing the EP2 receptor.
293S cells expressing the rat EP2 prostaglandin E2 receptor are generated according to methods known to those skilled in the art. Typically, PCR (polymerase chain reaction) primers corresponding to the 5′ and 3′ ends of the published full length receptor are made according to the well known methods disclosed above and are used in an RT-PCR reaction using the total RNA from rat kidney as a source. […]
Membrane Preparation: All operations are performed at 4° C. […] Pelleted membranes are resuspended to 3-10 mg protein per ml, protein concentration being determined of the method of Bradford [Bradford, M., Anal. Biochem., 72, 248 (1976)]. […]
Binding Assay: Frozen membranes prepared as above are thawed and diluted to 1 mg protein per ml in Buffer A above. […] To determine the amount of ^3H-prostaglandin bound to the membranes, the dried filters are placed into plastic bags with scintillation fluid and counted in a LKB 1205 Betaplate reader (Wallac, Gaithersburg, Md.). […]

[2] = Metabolism of 14C-parent in rat liver microsomes; format: in vitro ADME; details: 20 μM 14C-parent, NADPH, 30 minutes, 37° C.; HPLC radiochromatogram peak
Experimental: (§1) Human (HL-mix 12), rat, monkey and dog liver microsomes were prepared by differential centrifugation using standard procedures. Prior to use, liver microsomes were thawed on ice and reconstituted using 100 mM potassium phosphate pH 7.4. [^14C]-(3-{[4-tert-butyl-benzyl)-(pyridine-3-sulfonyl)-amino]-methyl}-phenoxy)-acetic acid was dissolved 100 mM potassium phosphate pH 7.4 at a final substrate concentration of 20 μM. Samples were pre-incubated for 3 min with microsomes (CYP 450; 0.5 μM) at 37° C. in a shaking water bath. Incubations were initiated with the addition of 100 μl cofactor (1.1 mM NADPH, 10 mM MgCl2) per 1 ml of incubation mixture. Incubations were stopped after 30 minutes by the addition of an equal volume of cold acetonitrile.
(§2) Metabolite quantification was performed by measuring the areas of individually separated HPLC peaks using the β-RAM (IN/US, Win-flow). […]
(§3) Identification of the metabolites was performed using a Finnigan TSQ 7000 triple quadrupole mass spectrometer equipped with an API-2 electrospray interface. […] The β-RAM response was recorded as a real time analog signal by the MS data collection system. The collected data from the radioactivity and MS detectors were separated by the dwell volume of flow from the MS to the radioactivity detector (corresponding to a dwell time of about 0.2 min.). […]

[3] = Metabolism of 14C-parent in monkey liver microsomes; format: in vitro ADME; details: 20 μM 14C-parent, NADPH, 30 minutes, 37° C.; HPLC radiochromatogram peak
Experimental: as §1, §2, §3

Dog hepatocytes = test: Metabolism of parent in dog hepatocytes; format: in vitro ADME, Beagle dogs; details: 20 μM parent, 2 million cells per ml, 4 hours, 37° C.
Experimental: (§4) Human hepatocytes were generated from a mix of 3 livers. Rat and monkey hepatocytes were generated using Sprague Dawley rats (12 livers), Cynomolgus monkey (1 liver) and Beagle dogs (2 livers). Cryopreserved hepatocytes were suspended in William's E media with 10% FBS to a viable count of 2 million cells per ml and gassed with 95/5 O2/CO2 initially and every hour of incubations. After the addition of 20 μM (3-{[4-tert-butyl-benzyl)-(pyridine-3-sulfonyl)-amino]-methyl}-phenoxy)-acetic acid to a 25 ml Erlenmeyer flask, 2.5 ml of hepatocytes suspension was added and incubated for 4 hours at 37° C. in a shaking water bath.
(§5) Metabolite quantification was performed by measuring the areas of individually separated HPLC peaks using the β-RAM (IN/US, Win-flow). The β-RAM provided integrated peak representation printouts in CPM as well as the percentage of the radiolabeled material. The β-RAM was operated using a solid scintillation cell.
Incubations were stopped by the addition of an equal volume of cold acetonitrile, sonicated and centrifuged at 3000 rpm for 10 minutes. The supernatants were removed and evaporated to dryness under nitrogen. Residues were reconstituted in 50:50 (acetonitrile: water) and aliquots (50-90 μl) were injected onto the HPLC system for analysis.
The HPLC system consisted of a HP-1100 solvent delivery system, a HP-1100 membrane degasser, a HP-1100 autoinjector (Hewlett Packard) and an IN/US radioactive monitor (β-RAM). Chromatography was performed on a YMC AQ (C-18) column (4.6 mm×150 mm, 3 μm) (Waters, Milford, Mass.). […]
as §3

[4] = Metabolism of 14C-parent in dog liver microsomes; format: in vitro ADME; details: 20 μM 14C-parent, NADPH, 30 minutes, 37° C.; HPLC radiochromatogram peak
Experimental: as §1, §2, §3

Rat hepatocytes = test: Metabolism of parent in rat hepatocytes; format: in vitro ADME, Sprague Dawley rats; details: 20 μM parent, 2 million cells per ml, 4 hours, 37° C.
Experimental: as §4
as §5, with “cell. […]” for “cell.”
as §3

Monkey hepatocytes = test: Metabolism of parent in monkey hepatocytes; format: in vitro ADME, Cynomolgus monkey; details: 20 μM parent, 2 million cells per ml, 4 hours, 37° C.; mobile phase pH 5.0
Experimental: as §4
as §5, with “cell. […]” for “cell.”
as §3

T1 sequence (Q62928 whole entry): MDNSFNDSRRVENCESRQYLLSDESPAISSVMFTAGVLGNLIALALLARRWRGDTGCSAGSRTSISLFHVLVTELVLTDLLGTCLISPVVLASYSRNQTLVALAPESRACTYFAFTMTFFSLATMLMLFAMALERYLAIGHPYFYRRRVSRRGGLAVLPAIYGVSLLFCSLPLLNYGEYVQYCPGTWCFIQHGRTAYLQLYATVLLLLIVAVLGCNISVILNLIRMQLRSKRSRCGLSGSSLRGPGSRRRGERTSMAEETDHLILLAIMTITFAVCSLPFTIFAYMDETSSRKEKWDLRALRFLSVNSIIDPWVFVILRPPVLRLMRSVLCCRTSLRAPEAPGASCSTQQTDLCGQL

CC(C)(C(=O)O)c1ccc(CN(Cc2cccc(OCC(=O)O)c2)S(=O)(=O)c2cccnc2)cc1 [Metabolite M3, 2-(4-{[(3-carboxymethoxy-benzyl)-(pyridine-3-sulfonyl)-amino]-methyl}-phenyl)-2-methyl-propionic acid]
IC50 [1]: 750 nM

CC(C)(C(=O)O)c1ccc(CNS(=O)(=O)c2cccnc2)cc1 [Metabolite M11, 2-methyl-2-{4-[(pyridine-3-sulfonylamino)-methyl]-phenyl}-propionic acid]
Percent of Radioactivity, Rat liver microsomes [2]: 20.7%
Percent of Radioactivity, Monkey liver microsomes [3]: 7.97%

CC(C)(C)c1ccc(CN(Cc2ccc(O)c(OCC(=O)O)c2)S(=O)(=O)c2cccnc2)cc1 [Metabolite M12, (5-{[(4-tert-butyl-benzyl)-(pyridine-3-sulfonyl)-amino]-methyl}-hydroxy-phenoxy)-acetic acid]
Percent of Radioactivity, Dog hepatocytes (Dog hepatocytes): 15.0%

CC(C)(C)c1ccc(CNS(=O)(=O)c2cccnc2)cc1 [Metabolite M20, pyridine-3-sulfonic acid 4-tert-butyl-benzylamide]
Percent of Radioactivity, Dog liver microsomes [4]: 1.96%

CC(C)(CO)c1ccc(CNS(=O)(=O)c2cccnc2)cc1 [Metabolite M21, pyridine-3-sulfonic acid 4-(2-hydroxy-1,1-dimethyl-ethyl)-benzylamide]
Percent of Radioactivity, Rat hepatocytes (Rat hepatocytes): 8.91%
Percent of Radioactivity, Dog hepatocytes (Dog hepatocytes): 7.92%
Percent of Radioactivity, Monkey hepatocytes (Monkey hepatocytes): 4.53%

dihydroxy (3-{[4-tert-butyl-benzyl)-(pyridine-3-sulfonyl)-amino]-methyl}-phenoxy)-acetic acid [Metabolite M2]
Percent of Radioactivity, Rat hepatocytes (Rat hepatocytes): 15.1%
Percent of Radioactivity, Dog hepatocytes (Dog hepatocytes): 6.59%

Reference: patent US6852863B2, “Metabolites of (3-{[4-tert-butyl-benzyl)-(pyridine-3-sulfonyl)-amino]-methyl}-phenoxy)-acetic acid” (Pfizer Inc., priority 2002, dated 2005)
